Measurements from PubChem BioAssay (NCI).
Several values for one entry are separate records, joined by “and”; a condition that tells them apart may be missing. Equal values may be shown once.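 In this assay, cells in 96-well plates receive the compound at five concentrations for 48 hours. Endpoints are linearly interpolated between the surrounding concentrations. The concentration for 50% growth inhibition is given as GI50. TGI marks complete inhibition of growth.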

Tests used:
Experiment in all cases: NCI anticancer screen, dose series, 48 h
[1] = test system: M19-MEL melanoma
[2] = test system: IGROV1 ovarian
[3] = test system: M14 melanoma
[4] = test system: UACC-257 melanoma
[5] = test system: SF-539 CNS
[6] = test system: HOP-18 NSCLC
[7] = test system: SNB-19 CNS
[8] = test system: HOP-92 NSCLC
[9] = test system: T-47D breast
[10] = test system: BT-549 breast

SMILES	TGI [1] [µM]	TGI [2]	TGI [3]	TGI [4]	TGI [5]	TGI [6] [µM]	TGI [7]	TGI [8]	GI50 [9]	TGI [9] [µM]	GI50 [2]	GI50 [4]	GI50 [10]	TGI [10] [µM]	GI50 [7] [µM]	GI50 [8] [µM]	GI50 [1] [µM]	GI50 [3] [µM]	GI50 [5] [µM]
CC(=O)CC(=O)N(CCN(C(=O)CC(C)=O)c1ccccc1)c1ccccc1	> 100	> 100 µM	> 100 µM	> 100 µM	> 100 µM	> 100	> 100 µM	> 100 µM	–	–	–	–	–	–	–	–	–	–	–
CN1CCC23c4c5ccc(O)c4OC2C(=NN=C2CCC4(O)C6Cc7ccc(O)c8c7C4(CCN6C)C2O8)CCC3(O)C1C5 (centres undefined)	> 100	> 100 µM	> 100 µM	> 100 µM	> 100 µM	> 100	> 100 µM	> 100 µM	–	–	–	–	–	–	–	–	–	–	–
CC1=CC(=O)C(C)(C2=NC(C)(C)CO2)c2ccccc21 (centres undefined)	> 100	> 100 µM	> 100 µM	> 100 µM	> 100 µM	> 100	> 100 µM	> 100 µM	–	–	–	–	–	–	–	–	–	–	–
NC1=NC(=O)N2CC12 (centres undefined)	–	> 100 µM and 1100 µM	> 100 µM and 273 µM	> 100 µM and 245 µM	> 100 µM and 206 µM	> 100	> 100 µM and 1120 µM	> 100 µM and 173 µM	26.7 µM and 54.5 µM	316	86.8 µM and 261 µM	66.6 µM and 85 µM	47.9 µM and 62.6 µM	166	516	70.8	–	–	–
O=c1c(O)c(-c2ccc(O)c(O)c2)oc2cc(O)ccc12	> 88.1	> 62.8 µM	44 µM	> 67.7 µM	26.7 µM	52.2	> 100 µM	71.8 µM	–	–	–	–	–	–	–	–	–	–	–
CCOC(=O)C1Cc2c(ccc(OC)c2OC)C(=O)C1N (centres undefined)	> 100	> 100 µM	> 100 µM	> 100 µM	> 100 µM	> 100	> 100 µM	> 100 µM	–	–	–	–	–	–	–	–	–	–	–
CCC[CH2][Sn]1([CH2]CCC)[O]C(c2ccccn2)S(=O)(=O)[O]1 (centres undefined)	14.4	20.3 µM	11.2 µM	3.29 µM	3.93 µM	–	23.5 µM	2.86 µM	–	–	6.47 µM	1.79 µM	–	–	11.4	1.41	4.1	3.57	1.74
O=C(O)/C(Cl)=C(\Cl)Nc1cccc(C(F)(F)F)c1	> 100	> 100 µM	33.4 µM	–	–	> 100	–	22.3 µM	–	–	–	–	–	–	–	–	–	–	–
CC1(C)CCC(=O)c2c(O)ccc(O)c21	> 100	> 100 µM	–	81.9 µM	> 100 µM	–	> 100 µM	76.9 µM	–	–	–	–	–	–	–	–	–	–	–
CCCCCCCCCOC(=S)NC	53.9	63.7 µM	45.8 µM	–	32.5 µM	44.2	> 100 µM	42.5 µM	–	–	–	–	–	–	–	–	–	–	–
CC(=O)[CH-]C(=O)c1ccccc1.CC(=O)[CH-]C(=O)c1ccccc1.O=C([O-])C[O-].O=C([O-])C[O-].[Ti+4]	> 100	> 100 µM	> 100 µM	> 100 µM	> 100 µM	–	> 100 µM	–	–	–	> 100 µM	43.1 µM	–	–	30.8	–	–	34.7	41.8
CCc1ccccc1NC(=O)/C(CC(=O)c1c(C)n([O-])c2ccccc2[n+]1=O)=N\NS(=O)(=O)c1ccc(C)cc1	46.7	> 100 µM	> 100 µM	82.1 µM	> 100 µM	–	> 100 µM	–	–	–	–	–	–	–	–	–	–	–	–
